Key:
Format in all cases: functional
[1] = tested on: HL-60(TB); experiment: Anticancer activity against human HL-60(TB) cells after 48 hrs by sulforhodamine B assay; conditions: Homo sapiens, HL-60, 48 h; for CC50: read-out: LC50 (the source's name)
[2] = tested on: K562; experiment: Anticancer activity against human K562 cells after 48 hrs by sulforhodamine B assay; conditions: Homo sapiens, K562, 48 h; for CC50: read-out: LC50 (the source's name)
[3] = tested on: MOLT-4; experiment: Anticancer activity against human MOLT4 cells after 48 hrs by sulforhodamine B assay; conditions: Homo sapiens, MOLT-4, 48 h
[4] = Anticancer activity against human […] cells after 48 hrs by sulforhodamine B assay; conditions: for CC50: read-out: LC50 (the source's name)
[5] = tested on: SR; experiment: Anticancer activity against human SR cells after 48 hrs by sulforhodamine B assay; conditions: Homo sapiens, SR, 48 h; for CC50: read-out: LC50 (the source's name)
[6] = tested on: A549; experiment: Anticancer activity against human A549 cells after 48 hrs by sulforhodamine B assay; conditions: Homo sapiens, A549, 48 h
[7] = tested on: HOP-92; experiment: Anticancer activity against human HOP92 cells after 48 hrs by sulforhodamine B assay; conditions: Homo sapiens, HOP-92, 48 h; for CC50: read-out: LC50 (the source's name)
[8] = tested on: NCI-H23; experiment: Anticancer activity against human NCI-H23 cells after 48 hrs by sulforhodamine B assay; conditions: for CC50: read-out: LC50 (the source's name)
[9] = tested on: NCI-H322M; experiment: Anticancer activity against human NCI-H322M cells after 48 hrs by sulforhodamine B assay; conditions: Homo sapiens, NCI-H322M, 48 h
[10] = tested on: COLO 205; experiment: Anticancer activity against human COLO205 cells after 48 hrs by sulforhodamine B assay; conditions: Homo sapiens, COLO 205, 48 h; for CC50: read-out: LC50 (the source's name)
[11] = tested on: HCC 2998; experiment: Anticancer activity against human HCC2998 cells after 48 hrs by sulforhodamine B assay; conditions: for CC50: read-out: LC50 (the source's name)
[12] = tested on: HCT-116; experiment: Anticancer activity against human HCT116 cells after 48 hrs by sulforhodamine B assay; conditions: Homo sapiens, HCT-116, 48 h; for CC50: read-out: LC50 (the source's name)
[13] = tested on: HCT-15; experiment: Anticancer activity against human HCT15 cells after 48 hrs by sulforhodamine B assay; conditions: Homo sapiens, HCT-15, 48 h; for CC50: read-out: LC50 (the source's name)
[14] = tested on: HT-29; experiment: Anticancer activity against human HT-29 cells after 48 hrs by sulforhodamine B assay; conditions: Homo sapiens, HT-29, 48 h; for CC50: read-out: LC50 (the source's name)
[15] = tested on: KM12; experiment: Anticancer activity against human KM12 cells after 48 hrs by sulforhodamine B assay; conditions: for CC50: read-out: LC50 (the source's name)
[16] = tested on: SF-539; experiment: Anticancer activity against human SF539 cells after 48 hrs by sulforhodamine B assay; conditions: Homo sapiens, SF-539, 48 h
[17] = tested on: U-251; experiment: Anticancer activity against human U251 cells after 48 hrs by sulforhodamine B assay; conditions: Homo sapiens, U-251, 48 h; for CC50: read-out: LC50 (the source's name)
[18] = tested on: Malme-3M; experiment: Anticancer activity against human MALME-3M cells after 48 hrs by sulforhodamine B assay; conditions: Homo sapiens, Malme-3M, 48 h
[19] = tested on: M14; experiment: Anticancer activity against human M14 cells after 48 hrs by sulforhodamine B assay
[20] = tested on: SK-MEL-28; experiment: Anticancer activity against human SK-MEL-28 cells after 48 hrs by sulforhodamine B assay
[21] = tested on: IGROV-1; experiment: Anticancer activity against human IGROV1 cells after 48 hrs by sulforhodamine B assay; conditions: IGROV-1, 48 h
[22] = tested on: OVCAR-5; experiment: Anticancer activity against human OVCAR5 cells after 48 hrs by sulforhodamine B assay; conditions: Homo sapiens, OVCAR-5, 48 h; for CC50: read-out: LC50 (the source's name)
[23] = tested on: OVCAR-8; experiment: Anticancer activity against human OVCAR8 cells after 48 hrs by sulforhodamine B assay; conditions: Homo sapiens, OVCAR-8, 48 h
[24] = tested on: SK-OV-3; experiment: Anticancer activity against human SKOV3 cells after 48 hrs by sulforhodamine B assay; conditions: Homo sapiens, SK-OV-3, 48 h; for CC50: read-out: LC50 (the source's name)
[25] = tested on: ACHN; experiment: Anticancer activity against human ACHN cells after 48 hrs by sulforhodamine B assay; conditions: Homo sapiens, ACHN, 48 h
[26] = tested on: RXF 393; experiment: Anticancer activity against human RXF393 cells after 48 hrs by sulforhodamine B assay; conditions: Homo sapiens, RXF 393, 48 h
[27] = tested on: SN12C; experiment: Anticancer activity against human SN12C cells after 48 hrs by sulforhodamine B assay; conditions: Homo sapiens, SN12C, 48 h
[28] = tested on: TK-10; experiment: Anticancer activity against human TK10 cells after 48 hrs by sulforhodamine B assay; conditions: Homo sapiens, TK-10, 48 h
[29] = tested on: MCF7; experiment: Anticancer activity against human MCF7 cells after 48 hrs by sulforhodamine B assay; conditions: Homo sapiens, MCF7, 48 h
[30] = tested on: MDA-MB-435; experiment: Anticancer activity against human MDA-MB-435 cells after 48 hrs by sulforhodamine B assay; conditions: Homo sapiens, MDA-MB-435, 48 h; for CC50: read-out: LC50 (the source's name)
[31] = tested on: BT-549; experiment: Anticancer activity against human BT549 cells after 48 hrs by sulforhodamine B assay; conditions: Homo sapiens, BT-549, 48 h; for CC50: read-out: LC50 (the source's name)
[32] = tested on: MDA-MB-468; experiment: Anticancer activity against human MDA-MB-468 cells after 48 hrs by sulforhodamine B assay; conditions: Homo sapiens, MDA-MB-468, 48 h

For `CCCCCCCCCCCCCCCC[n+]1ccn(C)c1.[Cl-]`, which GI50 [1] is on record?
The GI50 was 131 nM.

What about the CC50 [1] of the same molecule?
Its CC50 is 0.816 µM.

What about the GI50 [2] of the same molecule?
Its GI50 is 190 nM.

And the CC50 [2]?
The CC50 was 3.49 µM.

What about the GI50 [3] of the same molecule?
Its GI50 is 306 nM.

And the GI50 ([4]; Homo sapiens, RPMI8266, 48 h)?
The GI50 was 240 nM.

What about the CC50 ([4]; Homo sapiens, RPMI8266, 48 h) of the same molecule?
Its CC50 is 0.764 µM.

What about the GI50 [5] of the same molecule?
The GI50 was 100 nM.

What about the CC50 [5] of the same molecule?
Its CC50 is 4.38 µM.

What about the GI50 [6] of the same molecule?
The GI50 was 1.07 µM.

And the GI50 [7]?
Its GI50 is 1.02 µM.

And the CC50 [7]?
Its CC50 is 7.3 µM.

And the GI50 ([8]; Homo sapiens, NCI-H23, 48 h)?
The GI50 was 504 nM.

And the CC50 ([8]; Homo sapiens, NCI-H23, 48 h)?
Its CC50 is greater than 100 µM.

What about the GI50 [9] of the same molecule?
The GI50 was 1.74 µM.

What about the GI50 [10] of the same molecule?
The GI50 was 343 nM.

What about the CC50 [10] of the same molecule?
The CC50 was greater than 100 µM.

And the GI50 ([11]; Homo sapiens, HCC 2998, 48 h)?
Its GI50 is 192 nM.

What about the CC50 ([11]; Homo sapiens, HCC 2998, 48 h) of the same molecule?
The CC50 was 7.29 µM.

And the GI50 [12]?
The GI50 was 349 nM.

And the CC50 [12]?
The CC50 was 6.21 µM.

What about the GI50 [13] of the same molecule?
Its GI50 is 1 µM.

And the CC50 [13]?
The CC50 was 4.65 µM.

And the GI50 [14]?
Its GI50 is 311 nM.

And the CC50 [14]?
The CC50 was 5.06 µM.

What about the GI50 ([15]; Homo sapiens, KM12, 48 h) of the same molecule?
Its GI50 is 357 nM.

What about the CC50 ([15]; Homo sapiens, KM12, 48 h) of the same molecule?
The CC50 was 3.57 µM.

What about the GI50 [16] of the same molecule?
The GI50 was 1340 nM.

And the GI50 [17]?
The GI50 was 334 nM.

What about the CC50 [17] of the same molecule?
The CC50 was 3.87 µM.

What about the GI50 [18] of the same molecule?
Its GI50 is 549 nM.

What about the GI50 ([19]; Homo sapiens, M14, 48 h) of the same molecule?
Its GI50 is 343 nM.

And the GI50 ([20]; Homo sapiens, SK-MEL-28, 48 h)?
The GI50 was 948 nM.

What about the GI50 [21] of the same molecule?
Its GI50 is 48 nM.

What about the CC50 ([21]; read-out: LC50 (the source's name)) of the same molecule?
Its CC50 is greater than 100 µM.

What about the GI50 [22] of the same molecule?
The GI50 was 912 nM.

What about the CC50 [22] of the same molecule?
Its CC50 is 7.24 µM.

And the GI50 [23]?
The GI50 was 865 nM.

And the GI50 [24]?
Its GI50 is 1.27 µM.

And the CC50 [24]?
The CC50 was greater than 100 µM.

What about the GI50 [25] of the same molecule?
The GI50 was 0.832 µM.

And the GI50 [26]?
Its GI50 is 0.379 µM.

What about the GI50 [27] of the same molecule?
The GI50 was 1000 nM.

And the GI50 [28]?
The GI50 was 295 nM.

What about the GI50 [29] of the same molecule?
The GI50 was 431 nM.

What about the GI50 [30] of the same molecule?
The GI50 was 482 nM.

What about the CC50 [30] of the same molecule?
The CC50 was 6.98 µM.

What about the GI50 [31] of the same molecule?
The GI50 was 1040 nM.

And the CC50 [31]?
The CC50 was 5.92 µM.

What about the GI50 [32] of the same molecule?
The GI50 was 92 nM.

With `CCCCCCCCCCCC[n+]1ccn(C)c1.[Cl-]` as the molecule, how does the GI50 [1] read?
Its GI50 is 331 nM.

What about the CC50 [1] of the same molecule?
Its CC50 is 7.78 µM.

And the GI50 [2]?
Its GI50 is 498 nM.

What about the CC50 [2] of the same molecule?
The CC50 was greater than 100 µM.

What about the GI50 [3] of the same molecule?
Its GI50 is 2900 nM.

What about the GI50 [4] of the same molecule?
Its GI50 is 109 nM.

And the CC50 ([4]; Homo sapiens, RPMI8266, 48 h)?
The CC50 was 6.13 µM.

What about the GI50 [5] of the same molecule?
Its GI50 is 597 nM.

What about the CC50 [5] of the same molecule?
The CC50 was 97.6 µM.

And the GI50 [6]?
Its GI50 is 5.92 µM.

What about the GI50 [7] of the same molecule?
Its GI50 is 5.3 µM.

What about the CC50 [7] of the same molecule?
Its CC50 is greater than 100 µM.

What about the GI50 [8] of the same molecule?
Its GI50 is 885 nM.

What about the CC50 ([8]; Homo sapiens, NCI-H23, 48 h) of the same molecule?
The CC50 was greater than 100 µM.

What about the GI50 [9] of the same molecule?
The GI50 was 22.6 µM.

And the GI50 [10]?
Its GI50 is 2620 nM.

What about the CC50 [10] of the same molecule?
Its CC50 is greater than 100 µM.

And the GI50 [11]?
The GI50 was 1890 nM.

And the CC50 ([11]; Homo sapiens, HCC 2998, 48 h)?
Its CC50 is greater than 100 µM.

What about the GI50 [12] of the same molecule?
Its GI50 is 3590 nM.

And the CC50 [12]?
The CC50 was greater than 100 µM.

And the GI50 [13]?
Its GI50 is 20.8 µM.

And the CC50 [13]?
The CC50 was greater than 100 µM.

What about the GI50 [14] of the same molecule?
Its GI50 is 2600 nM.

And the CC50 [14]?
The CC50 was greater than 100 µM.

What about the GI50 ([15]; Homo sapiens, KM12, 48 h) of the same molecule?
Its GI50 is 2090 nM.

And the CC50 [15]?
The CC50 was 85.8 µM.

What about the GI50 [16] of the same molecule?
Its GI50 is 2720 nM.

And the GI50 [17]?
The GI50 was 2150 nM.

And the CC50 [17]?
The CC50 was greater than 100 µM.

And the GI50 [18]?
The GI50 was 4960 nM.

And the GI50 [19]?
Its GI50 is 1920 nM.

What about the GI50 [20] of the same molecule?
Its GI50 is 4570 nM.

And the GI50 [22]?
Its GI50 is 3750 nM.

What about the CC50 [22] of the same molecule?
The CC50 was greater than 100 µM.

What about the GI50 [23] of the same molecule?
Its GI50 is 2180 nM.

What about the GI50 [24] of the same molecule?
The GI50 was 4.76 µM.

What about the CC50 [24] of the same molecule?
Its CC50 is greater than 100 µM.

And the GI50 [25]?
Its GI50 is 7.24 µM.

What about the GI50 [26] of the same molecule?
Its GI50 is 5.9 µM.

And the GI50 [27]?
The GI50 was 2760 nM.

What about the GI50 [28] of the same molecule?
Its GI50 is 1920 nM.

And the GI50 [29]?
The GI50 was 1690 nM.

And the GI50 [30]?
Its GI50 is 1790 nM.

And the CC50 [30]?
Its CC50 is 69.1 µM.

And the GI50 [31]?
The GI50 was 1840 nM.

And the CC50 [31]?
Its CC50 is 50.8 µM.

And the GI50 [32]?
The GI50 was 384 nM.
